Data as given in patent US11000510B2, “Methods of using anti-CD79b immunoconjugates” (Genentech, Inc., priority 2014, dated 2021).

Key:
[1] = test system: activated B-cell-like (ABC) subtype; details: Br J Haematol 2013 Zhang et al.; cited from earlier work
non-ABC-DLBCL cells = details: Br J Haematol 2013 Zhang et al.; cited from earlier work
TMD8 (ABC-DLBCL) = test: Combination efficacy in tumor xenograft model of TMD8 (Example 5); details: ADC 2 mg/kg iv once; GA101 1 mg/kg ip qwx3; lenalidomide 20 mg/kg po (qdx5)x3
Description: When the xenograft tumors reached desired volume, animals were randomized and received treatments (Day 0 of the study). There were seven treatment groups (1) vehicle, (2) GA101, (3) anti-CD79b-MC-vc-PAB-MMAE, (4) lenalidomide, (5) GA101+anti-CD79b-MC-vc-PAB-MMAE, (6) GA101+lenalidomide, and (7) GA101+lenalidomide+anti-CD79b-MC-vc-PAB-MMAE. CD79b-MC-vc-PAB-MMAE ADC was dosed once intravenously at 2 mg/kg, iv, once. GA101 dosed 1 mg/kg, ip, qwx3. Lenalidomide was administered at 20 mg/kg, po, (qdx5)×3.
As described above, tumors were measured 1-2 times a week throughout the study using UltraCal-IV calipers and tumor volume was calculated using following formula: tumor volume (mm^3)=0.5a×b^2, wherein a and b are the long and short diameters of the tumor, respectively.

WSU-DLCL2 (DLBCL) = test: Combination efficacy in tumor xenograft model of WSU-DLCL2 (Example 6); assay type: in vivo, C.B-17 SCID mice; details: ADC 2 mg/kg iv once; GA101 30 mg/kg ip once; GDC-199 100 mg/kg po qdx21; GDC-032 10 mg/kg po qdx21; rituximab 30 mg/kg ip once
Description: GA101 dosed 30 mg/kg, ip, once. Bcl2 inhibitor, GDC-199, was dosed at 100 mg/kg, po, qdx21. PI3K inhibitor, GDC-032 was dosed at 10 mg/kg, po, qdx21.

[2] = test system: Granta-519 human mantle-cell lymphoma; test: Combination efficacy in tumor xenograft model of Granta-519 (Example 3); assay type: in vivo; details: ADC 1 mg/kg iv once; ABT-199 100 mg/kg orally once a day for 21 days
Description: To appropriately analyze the repeated measurement of tumor volumes from the same animals over time, a mixed modeling approach was used (Pinheiro J, et al. nlme: linear and nonlinear mixed effects models. 2009; R package, version 3.1-96). This approach addresses both repeated measurements and modest dropout rates due to non-treatment related removal of animals before the study end. Cubic regression splines were used to fit a non-linear profile to the time courses of log2 tumor volume at each dose level. These non-linear profiles were then related to dose within the mixed model. The results were plotted as fitted tumor volume of each group over time.

Nc1cccc2c1CN(C1CCC(=O)NC1=O)C2=O (racemic) [lenalidomide, (RS)-3-(4-Amino-1-oxo 1,3-dihydro-2H-isoindol-2-yl)piperidine-2,6-dione]
growth suppression of ABC subtype [1]: preferentially suppresses the growth
effect on non-ABC-DLBCL cells (non-ABC-DLBCL cells): minimal effect
anti-tumor efficacy (tumor volume, FIG. 3B) (TMD8 (ABC-DLBCL)): little efficacy

CC1(C)CCC(CN2CCN(c3ccc(C(=O)NS(=O)(=O)c4ccc(NCC5CCOCC5)c([N+](=O)[O-])c4)c(Oc4cnc5[nH]ccc5c4)c3)CC2)=C(c2ccc(Cl)cc2)C1 [ABT-199, 4-(4-{[2-(4-chlorophenyl)-4,4-dimethylcyclohex-1-en-1-yl]methyl}piperazin-1-yl)-N-({3-nitro-4-[(tetrahydro-2H-pyran-4-ylmethyl)amino]phenyl}sulfonyl)-2-(1H-pyrrolo[2,3-b]pyridin-5-yloxy)benzamide]
effect on tumor growth (tumor volume, FIG. 4) (WSU-DLCL2 (DLBCL)): little effect on the tumor growth
anti-tumor activity (fitted tumor volume over time, FIG. 2) [2]: did not result in anti-tumor activity

Cc1nc(-c2cn3c(n2)-c2ccc(-c4cnn(C(C)(C)C(N)=O)c4)cc2OCC3)n(C(C)C)n1 [GDC-0032]
effect on tumor growth (tumor volume, FIG. 4) (WSU-DLCL2 (DLBCL)): little effect on the tumor growth

GA101: anti-CD20 antibody; obinutuzumab is synonymous for GA101 or RO5072759; humanized B-Ly1 type II antibody
effect on tumor growth (tumor volume, FIG. 4) (WSU-DLCL2 (DLBCL)): little effect on the tumor growth
